In ChEMBL document CHEMBL3045406, “Enantioselective Relieving Activity of α-Methylbenzylphenylureas toward Bensulfuron-methyl Injury to Rice (Oryza sativa)” (Biosci Biotechnol Biochem, 1999):

Tests used:
[1] = system: Oryza sativa; test: Relieving activity against bensulfuron-methyl induced injury to Oryza sativa (rice) assessed as growth rate at 1 uM (Rbv = 46 to 53%); format: functional
[2] = system: Oryza sativa; test: Safener indices, ratio of compound effect of Oryza sativa (rice) growth rate to relieving activity against bensulfuron-methyl induced injury to Oryza sativa growth rate at 1 uM
[3] = system: Oryza sativa; test: Effect on Oryza sativa (rice) assessed as growth rate at 10 uM relative to control; format: organism-based; conditions: in vivo
[4] = system: Oryza sativa; test: Relieving activity against bensulfuron-methyl induced injury to Oryza sativa (rice) assessed as growth rate at 0.1 uM (Rbv = 46 to 53%); format: functional
[5] = Hydrophobicity, log K of the compound; format: physicochemical; conditions: octanol/water
[6] = system: Oryza sativa; test: Safener indices, ratio of compound effect of Oryza sativa (rice) growth rate to relieving activity against bensulfuron-methyl induced injury to Oryza sativa growth rate at 0.1 uM
[7] = system: Oryza sativa; test: Effect on Oryza sativa (rice) assessed as growth rate at 0.1 uM relative to control; format: organism-based; conditions: in vivo
[8] = system: Oryza sativa; test: Relieving activity against bensulfuron-methyl induced injury to Oryza sativa (rice) assessed as growth rate at 10 uM (Rbv = 46 to 53%); format: functional
[9] = system: Oryza sativa; test: Effect on Oryza sativa (rice) assessed as growth rate at 1 uM relative to control; format: organism-based; conditions: in vivo
[10] = system: Oryza sativa; test: Safener indices, ratio of compound effect of Oryza sativa (rice) growth rate to relieving activity against bensulfuron-methyl induced injury to Oryza sativa growth rate at 10 uM

SMILES	Activity [3]	log K [5]	Activity [7]	Activity [9]	Activity [1]	Ratio [2]	Activity [4]	Ratio [6]	Activity [8]	Ratio [10]
C[C@H](NC(=O)Nc1cc(F)cc(F)c1)c1ccccc1	99%	0.452	99%	99%	79%	58	64%	30	93%	85
C[C@H](NC(=O)Nc1cccc(Cl)c1Cl)c1ccccc1	101%	0.646	100%	100%	96%	91	89%	76	98%	96
C[C@H](NC(=O)Nc1ccc(Cl)c(Cl)c1)c1ccccc1	99%	0.61	98%	97%	78%	57	70%	39	90%	81
C[C@@H](NC(=O)Nc1cccc(C(F)(F)F)c1F)c1ccccc1	98%	0.624	99%	99%	90%	79	68%	33	96%	92
C[C@H](NC(=O)Nc1cc(C(F)(F)F)ccc1F)c1ccccc1	87%	0.64	98%	89%	79%	59	64%	26	84%	70
Cc1cc(F)ccc1NC(=O)N[C@H](C)c1ccccc1	94%	0.356	100%	100%	57%	9	54%	3	74%	48
Cc1cc(F)ccc1NC(=O)N[C@@H](C)c1ccccc1	96%	0.356	99%	98%	71%	40	56%	9	81%	62
Cc1ccc(NC(=O)N[C@H](C)c2ccccc2)c(F)c1	99%	0.459	98%	99%	79%	55	57%	11	89%	78
Cc1ccc(NC(=O)N[C@@H](C)c2ccccc2)c(F)c1	100%	0.459	100%	99%	87%	72	77%	53	95%	89
C[C@@H](NC(=O)Nc1ccc(Cl)cc1Cl)c1ccccc1	100%	0.688	101%	99%	65%	29	61%	20	75%	47
C[C@H](NC(=O)Nc1ccc(Cl)cc1Cl)c1ccccc1	99%	0.688	100%	100%	80%	59	68%	33	87%	73
C[C@H](NC(=O)Nc1cc(Cl)ccc1Cl)c1ccccc1	100%	0.704	100%	99%	85%	69	79%	56	91%	82
C[C@H](NC(=O)Nc1c(Cl)cccc1Cl)c1ccccc1	99%	0.326	100%	99%	69%	36	62%	21	74%	47
C[C@@H](NC(=O)Nc1cc(Cl)cc(Cl)c1)c1ccccc1	99%	0.703	99%	99%	63%	25	58%	14	69%	37
C[C@H](NC(=O)Nc1cc(Cl)cc(Cl)c1)c1ccccc1	99%	0.703	99%	100%	80%	59	74%	46	88%	76

Second part, led by results:

Activity [3]	log K [5]	Activity [7]	Activity [9]	SMILES	Activity [1]	Ratio [2]	Activity [4]	Ratio [6]	Activity [8]	Ratio [10]
99%	0.646	100%	100%	C[C@@H](NC(=O)Nc1cccc(Cl)c1Cl)c1ccccc1	80%	58	59%	14	89%	78
93%	0.61	98%	96%	C[C@@H](NC(=O)Nc1ccc(Cl)c(Cl)c1)c1ccccc1	66%	34	57%	15	77%	56
100%	0.624	99%	98%	C[C@H](NC(=O)Nc1cccc(C(F)(F)F)c1F)c1ccccc1	92%	84	76%	51	98%	96
60%	0.64	87%	70%	C[C@@H](NC(=O)Nc1cc(C(F)(F)F)ccc1F)c1ccccc1	55%	28	53%	13	59%	40
101%	0.704	99%	100%	C[C@@H](NC(=O)Nc1cc(Cl)ccc1Cl)c1ccccc1	68%	37	64%	26	77%	52
100%	0.326	100%	99%	C[C@@H](NC(=O)Nc1c(Cl)cccc1Cl)c1ccccc1	61%	19	57%	12	61%	21
